Consider one molecule from US20090012156A1, “Composition comprising polyphenol” (Conopco, Inc. d/b/a Unilever, priority 2007, published 2009).

The test system of the assay is 2nd order mesenteric artery side branches of Spontaneously Hypertensive Rats (SHR). In words: Reactivity of isolated arteries: dilator effect during contraction induced by 40 mmol/L K+. On the set-up: species or system rat. As to the method: Segments of 2nd order mesenteric artery side branches were isolated from 14 weeks old male Spontaneously Hypertensive Rats (SHR). Two stainless-steel wires (diameter 40 μm) were inserted in the lumen of the arterial segments, which were then mounted in organ chambers between an isometric force transducer and a displacement device (Danish Myotechnology by J. P. Trading, Denmark). The organ chambers were filled with Krebs-Ringer bicarbonate solution which was maintained at 37° C. and continuously aerated with 95% O2 and 5% CO2. Before the actual experiments started, arterial segments were stretched to their individual optimal lumen diameter for mechanical performance, i.e. the diameter at which maximal contractile responses to noradrenaline (10 μmol/L) were obtained. In each experiment four second order mesenteric resistance arterial segments from one animal were mounted in individual organ chambers and studied in parallel. […]
For the analysis of the acute effects of the mixtures on K+-induced contraction, increasing concentrations of the mixtures (0.1-100 umol/L) were administered on top of the stable contractions and were left in contact with the arterial segments for 5-7 min to make sure that either no effect or a stable effect was reached. […] In this way, the effects of different exposure times to the mixtures (7, 30 and 90 min) on K+-induced contraction, could be evaluated. […]
Active wall tension (AWT) was calculated by subtracting the resting wall tension.
All contractile responses (AWT in the presence of stimuli, solvent and mixes of ingredients) were next expressed as a percentage of the contractile response (AWT) to 10 uM noradrenaline at the end of the normalisation period, i.e. before exposure of the arterial segments to solvent or mixes of ingredients.
Effects of increasing concentrations of the solvent and of the mixes (0.1 to 100 umol/L) during contractile responses to 40 mmol/L K+, were calculated as % change of the level of pre-contraction. […]

As to `COc1cc(-c2oc3cc(O)cc(O)c3c(=O)c2O)ccc1O` [isorhamnetin, 3′methoxy-3,4,5,7-tetrahydroxyflavone], the concentration for a half-maximal effect (EC50) (as a rule, the concentration giving half of the maximal effect) (Rattus norvegicus, isolated SHR mesenteric resistance arteries pre-contracted with 40 mmol/L K+, effect worked out by comparing mixtures (Plackett-Burman design), corrected for solvent, read-out: EC50 of dilation of the arteries) stood at 3.1 µM. The maximum dilatation (at 100 micromolar of isorhamnetin, isolated SHR mesenteric arteries pre-contracted with 40 mmol/L K+) is on record as 94%. Also, where the note is “at a low concentration, isolated SHR mesenteric arteries, K+-induced contraction”, the “influence on the dilation of the arteries” value is on record as “significant influence on the dilation of the arteries”.
